The results in this text go back to patent US20230085307A1, “PYRIDAZINONE COMPOUND AND HERBICIDE” (NISSAN CHEMICAL CORPORATION, priority 2019, published 2023).

The subject of assay [1] is southern crabgrass. Description: Test Example 4: herbicidal effect by soil treatment (Table 19, symbol F). It counts as in vivo, southern crabgrass (Digitaria ciliaris). The settings on record: AAH 320 g/ha. In a few lines: (§1)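 Step 1: sow seeds in sterilized diluvial soil, cover ~1.5 cm. Step 2: spray diluted emulsion onto soil surface at predetermined rate. Step 3: greenhouse, 25–30° C, three weeks. Step 4: grade effect on each plant by earlier criteria.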

Assay [2] has as its system redroot pigweed. Description: Test Example 5: herbicidal effect by foliage application, plastic box (Table 20, symbol N). It counts as in vivo, redroot pigweed (Amaranthus retroflexus). To be noted: foliage application, AAH 320 g/ha, three weeks after application. In a few lines: (§2)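 Foliar spray test: emulsion formulation diluted in water to a set application rate, sprayed onto 14-day-old plants raised in diluvial soil at 25° C to 30° C under glass. Both herbicidal effect and crop effect rated visually three weeks later.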

Assay [3] has as its system Italian ryegrass. Description: Test Example 4: herbicidal effect by soil treatment (Table 19, symbol K). It counts as in vivo, Italian ryegrass (Lolium multiflorum). The settings on record: AAH 320 g/ha. In a few lines:
as §1

Assay [4] relates to chickweed. The experiment in a line: Test Example 4: herbicidal effect by soil treatment (Table 19, symbol P). It counts as in vivo, common chickweed (Stellaria media). The settings on record: AAH 320 g/ha. In a few lines:
as §1

In assay [5] the test system is wild oat. Description: Test Example 5: herbicidal effect by foliage application, plastic box (Table 20, symbol I). To be noted: foliage application, AAH 320 g/ha, three weeks after application. It counts as in vivo, wild oat (Avena fatua). In a few lines:
as §2

The test system of assay [6] is wild oat. The experiment in a line: Test Example 4: herbicidal effect by soil treatment (Table 19, symbol I). The assay is classed as in vivo, wild oat (Avena fatua). The settings on record: AAH 320 g/ha. In a few lines: as §1
For assay [7], the system named is lambsquarters. Description: Test Example 5: herbicidal effect by foliage application, plastic box (Table 20, symbol O). The assay is classed as in vivo, lambsquarters (Chenopodium album). The settings on record: foliage application, AAH 320 g/ha, three weeks after application. The gist of the method: as §2
The subject of assay [8] is persian speedwell. Description: Test Example 5: herbicidal effect by foliage application, plastic box (Table 20, symbol R). To be noted: foliage application, AAH 320 g/ha, three weeks after application. It counts as in vivo, Persian speedwell (Veronica persica). In a few lines: as §2
For assay [9], the system named is blackgrass. The experiment in a line: Test Example 5: herbicidal effect by foliage application, plastic box (Table 20, symbol J). The assay is classed as in vivo, blackgrass (Alopecurus myosuroides). To be noted: foliage application, AAH 320 g/ha, three weeks after application. The gist of the method:
as §2

For assay [10], the system named is windgrass. Description: Test Example 4: herbicidal effect by soil treatment (Table 19, symbol L). It counts as in vivo, windgrass (Apera spica-venti). The settings on record: AAH 320 g/ha. In a few lines: as §1
Assay [11] relates to barnyard grass. The experiment in a line: Test Example 5: herbicidal effect by foliage application, plastic box (Table 20, symbol H). It counts as in vivo, barnyard grass (Echinochloa crus-galli). The settings on record: foliage application, AAH 320 g/ha, three weeks after application. The gist of the method: as §2
The subject of assay [12] is redroot pigweed. The experiment in a line: Test Example 4: herbicidal effect by soil treatment (Table 19, symbol N). It counts as in vivo, redroot pigweed (Amaranthus retroflexus). To be noted: AAH 320 g/ha. In a few lines: as §1
The subject of assay [13] is southern crabgrass. The experiment in a line: Test Example 5: herbicidal effect by foliage application, plastic box (Table 20, symbol F). The settings on record: foliage application, AAH 320 g/ha, three weeks after application. The assay is classed as in vivo, southern crabgrass (Digitaria ciliaris). The gist of the method: as §2
Assay [14] relates to green foxtail. The experiment in a line: Test Example 4: herbicidal effect by soil treatment (Table 19, symbol G). The assay is classed as in vivo, green foxtail (Setaria viridis). The settings on record: AAH 320 g/ha. The gist of the method:
as §1

Assay [15] has as its system velvetleaf. The experiment in a line: Test Example 5: herbicidal effect by foliage application, plastic box (Table 20, symbol M). It counts as in vivo, velvetleaf (Abutilon theophrasti). To be noted: foliage application, AAH 320 g/ha, three weeks after application. In a few lines:
as §2

Assay [16] concerns green foxtail. The experiment in a line: Test Example 5: herbicidal effect by foliage application, plastic box (Table 20, symbol G). The assay is classed as in vivo, green foxtail (Setaria viridis). The settings on record: foliage application, AAH 320 g/ha, three weeks after application. The gist of the method: as §2
Assay [17] has as its system blackgrass. Description: Test Example 4: herbicidal effect by soil treatment (Table 19, symbol J). The assay is classed as in vivo, blackgrass (Alopecurus myosuroides). The settings on record: AAH 320 g/ha. The gist of the method:
as §1

The subject of assay [18] is Italian ryegrass. The experiment in a line: Test Example 5: herbicidal effect by foliage application, plastic box (Table 20, symbol K). It counts as in vivo, Italian ryegrass (Lolium multiflorum). To be noted: foliage application, AAH 320 g/ha, three weeks after application. In a few lines:
as §2

Assay [19] has as its system barnyard grass. Description: Test Example 4: herbicidal effect by soil treatment (Table 19, symbol H). It counts as in vivo, barnyard grass (Echinochloa crus-galli). To be noted: AAH 320 g/ha. In a few lines: as §1
Assay [20] deals with lambsquarters. Description: Test Example 4: herbicidal effect by soil treatment (Table 19, symbol O). The assay is classed as in vivo, lambsquarters (Chenopodium album). The settings on record: AAH 320 g/ha. The gist of the method: as §1
Assay [21] has as its system persian speedwell. The experiment in a line: Test Example 4: herbicidal effect by soil treatment (Table 19, symbol R). The assay is classed as in vivo, Persian speedwell (Veronica persica). To be noted: AAH 320 g/ha. In a few lines: as §1
For assay [22], the system named is chickweed. Description: Test Example 5: herbicidal effect by foliage application, plastic box (Table 20, symbol P). It counts as in vivo, common chickweed (Stellaria media). The settings on record: foliage application, AAH 320 g/ha, three weeks after application. In a few lines:
as §2

Assay [23] relates to windgrass. The experiment in a line: Test Example 5: herbicidal effect by foliage application, plastic box (Table 20, symbol L). The assay is classed as in vivo, windgrass (Apera spica-venti). The settings on record: foliage application, AAH 320 g/ha, three weeks after application. The gist of the method: as §2
The test system of assay [24] is velvetleaf. Description: Test Example 4: herbicidal effect by soil treatment (Table 19, symbol M). The assay is classed as in vivo, velvetleaf (Abutilon theophrasti). To be noted: AAH 320 g/ha. In a few lines: as §1

Structures are written as SMILES.

With `Cc1nn(C)c(=O)c(-c2c(-c3ccc(OS(=O)(=O)C(F)(F)F)cc3)sc3ccccc23)c1O` [1-147], the “F: southern crabgrass, herbicidal effect rating” value in [1] is listed as 0 (Herbicidal rate of 5% or less (almost no effect)). Besides, in assay [2], the “N: redroot pigweed, herbicidal effect” value is recorded as 0 (Herbicidal rate of 5% or less (almost no effect)). Besides, the “K: Italian ryegrass, herbicidal effect rating” value in assay [3] is 0 (Herbicidal rate of 5% or less (almost no effect)). In addition, in assay [4], the “P: chickweed, herbicidal effect rating” value is 5 (Herbicidal rate of 90% or more (almost completely withered)). Besides, the “I: wild oat, herbicidal effect” value in assay [5] is 0 (Herbicidal rate of 5% or less (almost no effect)). Besides, in [6], the “I: wild oat, herbicidal effect rating” value is reported as 0 (Herbicidal rate of 5% or less (almost no effect)). For the same molecule, the “O: lambsquarters, herbicidal effect” value in [7] was 2 (Herbicidal rate of 20% or more and less than 40%). The “R: persian speedwell, herbicidal effect” value in [8] is reported as 5 (Herbicidal rate of 90% or more (almost completely withered)). Moreover, in [9], the “J: blackgrass, herbicidal effect” value is given as 0 (Herbicidal rate of 5% or less (almost no effect)). The “L: windgrass, herbicidal effect rating” value in [10] is reported as 0 (Herbicidal rate of 5% or less (almost no effect)). The “H: barnyard grass, herbicidal effect” value in [11] is 0 (Herbicidal rate of 5% or less (almost no effect)). For the same molecule, the “N: redroot pigweed, herbicidal effect rating” value in [12] was 2 (Herbicidal rate of 20% or more and less than 40%). For the same molecule, the “F: southern crabgrass, herbicidal effect” value in assay [13] is on record as 0 (Herbicidal rate of 5% or less (almost no effect)). Moreover, in assay [14], the “G: green foxtail, herbicidal effect rating” value was 0 (Herbicidal rate of 5% or less (almost no effect)). In [15], the “M: velvetleaf, herbicidal effect” value is 1 (Herbicidal rate of 5% or more and less than 20%). In assay [16], the “G: green foxtail, herbicidal effect” value is 0 (Herbicidal rate of 5% or less (almost no effect)). The “J: blackgrass, herbicidal effect rating” value in [17] is on record as 0 (Herbicidal rate of 5% or less (almost no effect)). Moreover, the “K: Italian ryegrass, herbicidal effect” value in assay [18] is on record as 0 (Herbicidal rate of 5% or less (almost no effect)). Moreover, the “H: barnyard grass, herbicidal effect rating” value in assay [19] is 0 (Herbicidal rate of 5% or less (almost no effect)). Besides, in [20], the “O: lambsquarters, herbicidal effect rating” value is 3 (Herbicidal rate of 40% or more and less than 70%). For the same molecule, the “R: persian speedwell, herbicidal effect rating” value in [21] was 5 (Herbicidal rate of 90% or more (almost completely withered)). The “P: chickweed, herbicidal effect” value in [22] is listed as 5 (Herbicidal rate of 90% or more (almost completely withered)). In addition, in assay [23], the “L: windgrass, herbicidal effect” value is 0 (Herbicidal rate of 5% or less (almost no effect)). Also, the “M: velvetleaf, herbicidal effect rating” value in assay [24] is reported as 0 (Herbicidal rate of 5% or less (almost no effect)).
